A word on the melting point: it is the temperature, or range, at which the solid turns liquid.

Drawing on patent publication US20130253011A1, “INSECTICIDAL COMPOUNDS” (SYNGENTA PARTICIPATIONS AG, priority 2010, published 2013), this text covers melting point for one molecule.

Structures are written as SMILES.

As for `COc1c(-c2cn(-c3c(C(F)(F)F)c(C(F)(F)C(F)(F)F)nn3C)nn2)cccc1N(C)C(=O)c1c(F)cc(F)cc1F`, the melting point lay in the range of 80 to 82 °C.
